Assay results published in PubChem BioAssay AID1963867 (Molecular Pharmacology Branch, DTP, NCI, 2024).

System: KRAS-mutant PDC tumor spheroid with HUVEC/MSC, viability
Test: Anticancer human tumor 327498-153-R-J2-PDC patient-derived uterine carcinosarcoma cell line growth inhibition [KRAS2]
Conditions: for viability, T/C: stronger effect = lower value
How it was run: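 KRAS-mutant tumor cells were grown as spheroids with HUVEC endothelial cells and human MSCs as stroma. Targeted agents were tested alone and with KRAS pathway inhibitors. Doses started at or near clinical Cmax, or 10 microM, descending half-log.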

[1] = curve of first compound, second compound 0.1 µM
[2] = curve of first compound, second compound 0.316 µM
[3] = curve of first compound, second compound 1 µM
[4] = curve of first compound, second compound 3.16 µM
[5] = curve of first compound, second compound 10 µM
[6] = second compound 0.1 µM, first compound 0.01 µM
[7] = second compound 0.1 µM, first compound 0.0316 µM
[8] = second compound 0.1 µM, first compound 0.1 µM
[9] = second compound 0.1 µM, first compound 0.316 µM
[10] = second compound 0.1 µM, first compound 1 µM
[11] = second compound 0.316 µM, first compound 0.01 µM
[12] = second compound 0.316 µM, first compound 0.0316 µM
[13] = second compound 0.316 µM, first compound 0.1 µM
[14] = second compound 0.316 µM, first compound 0.316 µM
[15] = second compound 0.316 µM, first compound 1 µM
[16] = second compound 1 µM, first compound 0.01 µM
[17] = second compound 1 µM, first compound 0.0316 µM
[18] = second compound 1 µM, first compound 0.1 µM
[19] = second compound 1 µM, first compound 0.316 µM
[20] = second compound 1 µM, first compound 1 µM
[21] = second compound 3.16 µM, first compound 0.01 µM
[22] = second compound 3.16 µM, first compound 0.0316 µM
[23] = second compound 3.16 µM, first compound 0.1 µM
[24] = second compound 3.16 µM, first compound 0.316 µM
[25] = second compound 3.16 µM, first compound 1 µM
[26] = second compound 10 µM, first compound 0.01 µM
[27] = second compound 10 µM, first compound 0.0316 µM
[28] = second compound 10 µM, first compound 0.1 µM
[29] = second compound 10 µM, first compound 0.316 µM
[30] = second compound 10 µM, first compound 1 µM
[31] = second compound 0.1 µM, first compound 3.16 µM
[32] = second compound 0.1 µM, first compound 10 µM
[33] = second compound 0.316 µM, first compound 3.16 µM
[34] = second compound 0.316 µM, first compound 10 µM
[35] = second compound 1 µM, first compound 3.16 µM
[36] = second compound 1 µM, first compound 10 µM
[37] = second compound 3.16 µM, first compound 3.16 µM
[38] = second compound 3.16 µM, first compound 10 µM
[39] = second compound 10 µM, first compound 3.16 µM
[40] = second compound 10 µM, first compound 10 µM
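Note: spheroids exposed to agents for seven days before reading.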
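Throughout, for viability, T/C: 100% = DMSO vehicle wells so lower means fewer viable cells.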

Row | Structure (SMILES) | IC50 [1] [nM] | IC50 [2] [nM] | IC50 [3] [nM] | IC50 [4] [nM] | IC50 [5] [nM] | viability, T/C [7] [%] | viability, T/C [8] [%] | viability, T/C [9] [%] | viability, T/C [10] [%] | viability, T/C [12] [%] | viability, T/C [13] [%] | viability, T/C [14] [%] | viability, T/C [15] [%] | viability, T/C [17] [%] | viability, T/C [18] [%] | viability, T/C [19] [%] | viability, T/C [20] [%] | viability, T/C [22] [%] | viability, T/C [23] [%] | viability, T/C [24] [%] | also measured
1 | CCN1CCN(Cc2ccc(Nc3ncc(F)c(-c4cc(F)c5nc(C)n(C(C)C)c5c4)n3)nc2)CC1 + CNCc1ccccc1-c1csc(C(C)Nc2nc(C)nc3cc(OC)c(OC)cc23)c1 | 42.9 | 13.1 | 9.26 | < 3.16 | < 3.16 | 52.9 | 37.5 | 41.7 | 47 | 41.3 | 35.5 | 39.6 | 43.9 | 36.4 | 34.5 | 36.2 | 21.8 | 0.11 | 0.06 | 0.24 | viability, T/C (second compound 0.1 µM, first compound 0.00316 µM): 65.2%; viability, T/C [6]: 58.8%; viability, T/C (second compound 0.316 µM, first compound 0.00316 µM): 69.4%; viability, T/C [11]: 52.8%; viability, T/C (second compound 1 µM, first compound 0.00316 µM): 72.7%; viability, T/C [16]: 46.9%; viability, T/C (second compound 3.16 µM, first compound 0.00316 µM): 0.58%; viability, T/C [21]: 0.79%; viability, T/C [25]: 0.25%; viability, T/C (second compound 10 µM, first compound 0.00316 µM): 0.56%; viability, T/C [26]: 0.69%; viability, T/C [27]: 0.91%; viability, T/C [28]: 0.68%; viability, T/C [29]: 0.69%; viability, T/C [30]: 0.69%
2 | Cn1nccc1Nc1nccc(-c2cc3c(s2)C(C)(C)N(CCN2CCOCC2)C3=O)n1 | – | – | – | – | – | – | – | – | – | – | – | – | – | – | – | – | – | – | – | – | viability, T/C (compound 0.0316 µM): 101% [middle of 5 runs]; viability, T/C (compound 0.1 µM): 96.8% [middle of 5 runs]; viability, T/C (compound 0.316 µM): 79.2% [middle of 5 runs]; viability, T/C (compound 1 µM): 69.1% [middle of 5 runs]; viability, T/C (compound 3.16 µM): 57.6% [middle of 5 runs]; viability, T/C (compound 10 µM): 43.9% [middle of 5 runs]; IC50 (curve of compound): 5.75 µM [middle of 5 runs]
3 | COc1cc2nccc(Oc3ccc(NC(=O)C4(C(=O)Nc5ccc(F)cc5)CC4)cc3)c2cc1OC + C=CC(=O)N1CCN(c2nc(=O)n(-c3c(C)ccnc3C(C)C)c3nc(-c4c(O)cccc4F)c(F)cc23)C(C)C1 | 1350 | 1150 | 1070 | 1030 | < 31.6 | 55.8 | 63.5 | 60.1 | 59.6 | 56.8 | 59.5 | 59.9 | 54.5 | 49.1 | 52.4 | 53.7 | 54 | 51.4 | 49.7 | 54.8 | viability, T/C [31]: 22.6%; viability, T/C [32]: 1.82%; viability, T/C [33]: 16.5%; viability, T/C [34]: 1.34%; viability, T/C [35]: 16%; viability, T/C [36]: 1.1%; viability, T/C [25]: 50.9%; viability, T/C [37]: 15.2%; viability, T/C [38]: 0.82%; viability, T/C [27]: 36%; viability, T/C [28]: 37.5%; viability, T/C [29]: 39.9%; viability, T/C [30]: 34%; viability, T/C [39]: 8.7%; viability, T/C [40]: 0.79%
4 | CC(=O)OC12COC1CC(O)C1(C)C(=O)C(O)C3=C(C)C(OC(=O)C(O)C(NC(=O)OC(C)(C)C)c4ccccc4)CC(O)(C(OC(=O)c4ccccc4)C21)C3(C)C (configuration not stated) + CC1OCC2(CCN(c3cnc(Sc4ccnc(N)c4Cl)c(N)n3)CC2)C1N | < 10 | < 10 | < 10 | < 10 | < 10 | 5.15 | 5.38 | 6.78 | 9.97 | 4.87 | 5.16 | 6.51 | 8.59 | 6.9 | 11 | 6.11 | 8.45 | 6.18 | 5.94 | 6.88 | viability, T/C [6]: 7.15%; viability, T/C [31]: 11.7%; viability, T/C [11]: 7.22%; viability, T/C [33]: 12.2%; viability, T/C [16]: 8.68%; viability, T/C [35]: 11.8%; viability, T/C [21]: 6.83%; viability, T/C [25]: 9.05%; viability, T/C [37]: 10.5%; viability, T/C [26]: 12.6%; viability, T/C [27]: 6.42%; viability, T/C [28]: 9.06%; viability, T/C [29]: 5.82%; viability, T/C [30]: 10.8%; viability, T/C [39]: 10.4%
5 | COc1cc(Nc2ncc3c(n2)-c2ccc(Cl)cc2C(c2c(F)cccc2OC)=NC3)ccc1C(=O)O | – | – | – | – | – | – | – | – | – | – | – | – | – | – | – | – | – | – | – | – | viability, T/C (compound 0.0316 µM): 19.4% [middle of 5 runs]; viability, T/C (compound 0.1 µM): 13.1% [middle of 5 runs]; viability, T/C (compound 0.316 µM): 11.2% [middle of 5 runs]; viability, T/C (compound 1 µM): 12.1% [middle of 5 runs]; viability, T/C (compound 3.16 µM): 12.5% [middle of 5 runs]; viability, T/C (compound 10 µM): 14.5% [middle of 5 runs]; IC50 (curve of compound): < 31.6 nM
6 | O=C(c1cc(Cc2n[nH]c(=O)c3ccccc23)ccc1F)N1CCN(C(=O)C2CC2)CC1 + COc1cc2nc(C)nc(NC(C)c3cc(N)cc(C(F)(F)F)c3)c2cc1OC1CCOC1 | 2220 | 1750 | 2470 | 1740 | 719 | 84.2 | 107 | 89.7 | 78.7 | 77.2 | 79.2 | 81.9 | 68.5 | 109 | 104 | 102 | 94.6 | 78.4 | 77.3 | 76.1 | viability, T/C [31]: 37.3%; viability, T/C [32]: 20.7%; viability, T/C [33]: 30.3%; viability, T/C [34]: 15.9%; viability, T/C [35]: 37.8%; viability, T/C [36]: 18.7%; viability, T/C [25]: 66.3%; viability, T/C [37]: 32.5%; viability, T/C [38]: 18.5%; viability, T/C [27]: 99.8%; viability, T/C [28]: 61%; viability, T/C [29]: 63%; viability, T/C [30]: 56.9%; viability, T/C [39]: 25.3%; viability, T/C [40]: 14.7%
7 | COc1cc(OC)cc(N(CCNC(C)C)c2ccc3ncc(-c4cnn(C)c4)nc3c2)c1 | – | – | – | – | – | – | – | – | – | – | – | – | – | – | – | – | – | – | – | – | viability, T/C (compound 0.0316 µM): 73.7% [middle of 5 runs]; viability, T/C (compound 0.1 µM): 71.3% [middle of 5 runs]; viability, T/C (compound 10 µM): 0.42% [middle of 5 runs]
8 | COc1cc2nccc(Oc3ccc(NC(=O)C4(C(=O)Nc5ccc(F)cc5)CC4)cc3)c2cc1OC + CC1OCC2(CCN(c3cnc(Sc4ccnc(N)c4Cl)c(N)n3)CC2)C1N | 1310 | 659 | < 31.6 | < 31.6 | < 31.6 | 70.9 | 76.3 | 61.8 | 60.5 | 53.3 | 53.5 | 46.9 | 49.5 | 38.5 | 35.9 | 32.2 | 31.9 | 29.9 | 31.5 | 23.1 | viability, T/C [31]: 21.6%; viability, T/C [32]: 2.02%; viability, T/C [33]: 20.5%; viability, T/C [34]: 1.95%; viability, T/C [35]: 10.8%; viability, T/C [36]: 1.02%; viability, T/C [25]: 21.3%; viability, T/C [37]: 14.4%; viability, T/C [38]: 0.53%; viability, T/C [27]: 24.6%; viability, T/C [28]: 21.9%; viability, T/C [29]: 23.6%; viability, T/C [30]: 22.1%; viability, T/C [39]: 9.8%; viability, T/C [40]: 0.48%
9 | CNCc1ccccc1-c1csc(C(C)Nc2nc(C)nc3cc(OC)c(OC)cc23)c1 (configuration not stated) | – | – | – | – | – | – | – | – | – | – | – | – | – | – | – | – | – | – | – | – | viability, T/C (compound 0.1 µM): 85.7% [middle of 17 runs]; viability, T/C (compound 0.316 µM): 77.5% [middle of 17 runs]; viability, T/C (compound 10 µM): 1.07% [middle of 17 runs]; IC50 (compound alone, run of 07/19/2021): 1.43 µM [middle of 5 runs]; IC50 (compound alone, run of 07/26/2021): 1.48 µM [middle of 5 runs]
